The source of these data is ChEMBL document CHEMBL1821675, “The selective P-TEFb inhibitor CAN508 targets angiogenesis” (Eur J Med Chem, 2011).

The test system of assay [1] is SNB-75. Description: Cytotoxicity against human SNB75 cells. It is filed as functional.
Assay [2] deals with HCC 2998. Briefly: Cytotoxicity against human HCC2998 cells. It is filed as functional.
Assay [3] deals with K562. Briefly: Cytotoxicity against human K562 cells. The class given is functional.
Assay [4] has as its system OVCAR-3. Description: Cytotoxicity against human OVCAR3 cells. The class given is functional.
Assay [5] concerns OVCAR-5. Briefly: Cytotoxicity against human OVCAR5 cells. It is filed as functional.
Assay [6] concerns OVCAR-8. Description: Cytotoxicity against human OVCAR8 cells. It is filed as functional.
Assay [7] relates to SN12C. Briefly: Cytotoxicity against human SN12C cells. The class given is functional.
Assay [8] in a line: Antiangiogenic activity in VEGF-stimulated HMEC1 assessed as reduction in median length of tube at 20 uM after 16 hrs by photographic analysis. It is filed as functional, Homo sapiens, HMEC-1. On the set-up: scale not given: the % may be the effect or the level left.
Assay [9] concerns MCF7. Briefly: Inhibition of RNA synthesis in human MCF7 cells assessed as decrease in [3H] Uridine incorporation after 2 hrs by scintillation counting. It is filed as functional, cell-based.
Assay [10] has as its target Ephrin type-A receptor 2 (Homo sapiens) (UniProt P29317). Briefly: Inhibition of EPHA2 assessed as residual activity at 10 uM by radioactivity assay in presence of 50 uM ATP.
The target in assay [11] is Homeodomain-interacting protein kinase 3 (Homo sapiens) (UniProt Q9H422). Briefly: Inhibition of HIPK3 assessed as residual activity at 10 uM by radioactivity assay in presence of 20 uM ATP.
Sequence of Homeodomain-interacting protein kinase 3 (Homo sapiens) (Q9H422 whole entry, looked up): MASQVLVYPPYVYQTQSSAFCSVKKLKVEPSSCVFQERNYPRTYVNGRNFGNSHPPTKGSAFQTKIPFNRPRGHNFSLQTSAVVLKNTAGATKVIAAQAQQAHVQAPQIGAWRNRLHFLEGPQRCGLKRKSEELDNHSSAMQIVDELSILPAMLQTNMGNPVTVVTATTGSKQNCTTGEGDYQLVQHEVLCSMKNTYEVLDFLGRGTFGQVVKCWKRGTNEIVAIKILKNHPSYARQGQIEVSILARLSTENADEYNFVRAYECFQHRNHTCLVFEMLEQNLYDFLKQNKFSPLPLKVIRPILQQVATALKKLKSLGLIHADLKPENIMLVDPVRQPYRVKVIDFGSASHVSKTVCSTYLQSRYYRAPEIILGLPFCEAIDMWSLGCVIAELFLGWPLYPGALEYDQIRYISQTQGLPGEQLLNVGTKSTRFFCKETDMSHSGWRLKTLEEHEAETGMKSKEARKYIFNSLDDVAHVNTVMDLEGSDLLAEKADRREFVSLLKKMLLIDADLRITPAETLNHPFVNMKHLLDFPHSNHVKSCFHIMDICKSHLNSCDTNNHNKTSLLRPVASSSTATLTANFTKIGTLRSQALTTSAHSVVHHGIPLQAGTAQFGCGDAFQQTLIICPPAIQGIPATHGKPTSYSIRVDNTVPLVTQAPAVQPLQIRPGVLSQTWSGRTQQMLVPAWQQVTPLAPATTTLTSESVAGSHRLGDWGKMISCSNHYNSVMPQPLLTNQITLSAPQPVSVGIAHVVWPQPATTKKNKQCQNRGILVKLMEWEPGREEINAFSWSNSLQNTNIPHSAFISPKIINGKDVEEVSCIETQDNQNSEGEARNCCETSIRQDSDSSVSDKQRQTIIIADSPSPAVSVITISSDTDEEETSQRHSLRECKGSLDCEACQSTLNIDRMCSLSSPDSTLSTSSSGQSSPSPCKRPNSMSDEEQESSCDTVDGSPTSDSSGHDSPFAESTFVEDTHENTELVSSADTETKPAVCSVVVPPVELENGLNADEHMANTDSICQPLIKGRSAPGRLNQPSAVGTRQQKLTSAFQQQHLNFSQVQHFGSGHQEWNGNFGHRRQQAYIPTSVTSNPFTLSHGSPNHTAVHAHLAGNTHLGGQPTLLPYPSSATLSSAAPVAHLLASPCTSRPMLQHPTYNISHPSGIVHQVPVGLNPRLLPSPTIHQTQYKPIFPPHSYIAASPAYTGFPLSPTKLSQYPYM
Assay [12] addresses Insulin receptor (Homo sapiens) (UniProt P06213). Briefly: Inhibition of IR assessed as residual activity at 10 uM by radioactivity assay in presence of 20 uM ATP.
The target in assay [13] is Mitogen-activated protein kinase 8 (Homo sapiens) (UniProt P45983). Briefly: Inhibition of JNK1A1 assessed as residual activity at 10 uM by radioactivity assay in presence of 20 uM ATP.
Assay [14] has as its target Mitogen-activated protein kinase 10 (Homo sapiens) (UniProt P53779). Description: Inhibition of JNK3alpha1 assessed as residual activity at 10 uM by radioactivity assay in presence of 20 uM ATP.
For assay [15], the target named is Mitogen-activated protein kinase 12 (Homo sapiens) (UniProt P53778). Briefly: Inhibition of p38-gamma MAPK assessed as residual activity at 10 uM by radioactivity assay in presence of 5 uM ATP.
Assay [16] has as its target Rho-associated protein kinase 2 (Homo sapiens) (UniProt O75116). Description: Inhibition of ROCK2 assessed as residual activity at 10 uM by radioactivity assay in presence of 20 uM ATP.
The target of assay [17] is Dual specificity protein kinase TTK (Homo sapiens) (UniProt P33981). Description: Inhibition of TTK assessed as residual activity at 10 uM by radioactivity assay in presence of 20 uM ATP.
Sequence of Dual specificity protein kinase TTK (Homo sapiens) (P33981 whole entry): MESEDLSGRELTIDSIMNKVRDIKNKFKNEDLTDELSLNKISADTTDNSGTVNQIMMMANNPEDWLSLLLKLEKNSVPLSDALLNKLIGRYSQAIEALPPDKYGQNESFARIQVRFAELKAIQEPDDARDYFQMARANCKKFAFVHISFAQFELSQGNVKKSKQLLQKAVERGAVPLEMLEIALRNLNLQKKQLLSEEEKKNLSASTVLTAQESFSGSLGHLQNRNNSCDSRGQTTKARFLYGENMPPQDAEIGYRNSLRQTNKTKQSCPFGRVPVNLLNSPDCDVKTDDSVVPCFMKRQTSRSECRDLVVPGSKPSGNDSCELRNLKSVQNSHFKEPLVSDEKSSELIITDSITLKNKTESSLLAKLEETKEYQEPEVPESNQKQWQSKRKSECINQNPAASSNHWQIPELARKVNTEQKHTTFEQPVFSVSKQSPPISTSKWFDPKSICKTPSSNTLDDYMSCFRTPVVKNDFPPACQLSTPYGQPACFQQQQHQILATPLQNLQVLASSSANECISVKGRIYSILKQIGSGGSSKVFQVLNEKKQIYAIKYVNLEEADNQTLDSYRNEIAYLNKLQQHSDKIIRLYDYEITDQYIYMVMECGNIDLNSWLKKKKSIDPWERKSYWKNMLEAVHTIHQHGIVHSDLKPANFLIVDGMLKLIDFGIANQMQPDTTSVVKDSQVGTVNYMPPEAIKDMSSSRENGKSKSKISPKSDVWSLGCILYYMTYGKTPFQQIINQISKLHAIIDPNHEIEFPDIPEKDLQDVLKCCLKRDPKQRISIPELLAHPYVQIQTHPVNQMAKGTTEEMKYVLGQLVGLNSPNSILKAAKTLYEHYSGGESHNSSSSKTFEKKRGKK

Sequence of Insulin receptor (Homo sapiens) (P06213 28-758 limits assumed): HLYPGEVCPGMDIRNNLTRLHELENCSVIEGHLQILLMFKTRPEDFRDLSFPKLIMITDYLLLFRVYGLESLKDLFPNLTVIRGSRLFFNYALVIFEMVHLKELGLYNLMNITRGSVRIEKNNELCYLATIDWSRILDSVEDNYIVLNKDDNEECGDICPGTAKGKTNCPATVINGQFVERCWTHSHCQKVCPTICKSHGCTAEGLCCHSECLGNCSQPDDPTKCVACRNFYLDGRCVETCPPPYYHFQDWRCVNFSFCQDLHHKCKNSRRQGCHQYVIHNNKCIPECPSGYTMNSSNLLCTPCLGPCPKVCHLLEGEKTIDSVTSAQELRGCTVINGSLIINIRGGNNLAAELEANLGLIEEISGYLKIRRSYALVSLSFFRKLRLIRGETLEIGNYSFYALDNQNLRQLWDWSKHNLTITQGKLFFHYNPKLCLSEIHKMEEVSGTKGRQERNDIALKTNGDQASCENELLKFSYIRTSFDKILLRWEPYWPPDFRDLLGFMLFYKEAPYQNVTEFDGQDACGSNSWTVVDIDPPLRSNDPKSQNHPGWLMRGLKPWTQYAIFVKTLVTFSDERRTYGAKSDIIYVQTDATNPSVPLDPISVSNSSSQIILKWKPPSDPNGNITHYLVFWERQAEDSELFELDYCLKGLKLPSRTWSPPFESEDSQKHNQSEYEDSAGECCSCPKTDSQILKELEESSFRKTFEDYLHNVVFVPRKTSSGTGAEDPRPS
Sequence of Insulin receptor (Homo sapiens) (P06213 763-1382 limits assumed): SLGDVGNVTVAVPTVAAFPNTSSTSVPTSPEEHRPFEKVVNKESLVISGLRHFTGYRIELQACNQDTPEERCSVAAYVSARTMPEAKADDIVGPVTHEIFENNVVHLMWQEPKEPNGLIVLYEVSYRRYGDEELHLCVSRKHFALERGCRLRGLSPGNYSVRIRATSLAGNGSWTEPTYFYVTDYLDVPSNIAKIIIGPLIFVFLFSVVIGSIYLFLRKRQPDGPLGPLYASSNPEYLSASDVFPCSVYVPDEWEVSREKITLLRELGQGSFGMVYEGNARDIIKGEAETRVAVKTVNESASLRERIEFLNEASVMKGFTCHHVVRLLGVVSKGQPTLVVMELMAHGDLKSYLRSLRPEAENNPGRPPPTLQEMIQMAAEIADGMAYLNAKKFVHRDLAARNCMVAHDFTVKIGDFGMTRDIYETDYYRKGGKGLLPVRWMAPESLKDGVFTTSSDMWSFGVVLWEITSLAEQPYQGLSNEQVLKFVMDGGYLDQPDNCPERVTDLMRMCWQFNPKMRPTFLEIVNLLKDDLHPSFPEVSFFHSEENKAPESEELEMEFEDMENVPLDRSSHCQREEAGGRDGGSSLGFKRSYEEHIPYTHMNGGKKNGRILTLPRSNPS
Sequence of Mitogen-activated protein kinase 10 (Homo sapiens) (P53779 whole entry): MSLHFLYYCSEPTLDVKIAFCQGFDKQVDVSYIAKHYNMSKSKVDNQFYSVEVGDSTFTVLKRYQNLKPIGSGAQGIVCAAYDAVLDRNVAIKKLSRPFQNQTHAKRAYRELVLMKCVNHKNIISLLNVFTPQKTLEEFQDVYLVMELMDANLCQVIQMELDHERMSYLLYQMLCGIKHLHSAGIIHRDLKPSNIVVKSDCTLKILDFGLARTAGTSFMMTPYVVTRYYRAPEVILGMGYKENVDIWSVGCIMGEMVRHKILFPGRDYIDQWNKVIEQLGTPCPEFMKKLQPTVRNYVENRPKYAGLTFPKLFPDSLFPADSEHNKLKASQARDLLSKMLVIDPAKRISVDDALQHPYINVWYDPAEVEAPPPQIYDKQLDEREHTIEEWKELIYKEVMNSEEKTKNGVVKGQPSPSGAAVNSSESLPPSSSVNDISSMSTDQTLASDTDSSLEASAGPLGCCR
Sequence of Ephrin type-A receptor 2 (Homo sapiens) (P29317 whole entry): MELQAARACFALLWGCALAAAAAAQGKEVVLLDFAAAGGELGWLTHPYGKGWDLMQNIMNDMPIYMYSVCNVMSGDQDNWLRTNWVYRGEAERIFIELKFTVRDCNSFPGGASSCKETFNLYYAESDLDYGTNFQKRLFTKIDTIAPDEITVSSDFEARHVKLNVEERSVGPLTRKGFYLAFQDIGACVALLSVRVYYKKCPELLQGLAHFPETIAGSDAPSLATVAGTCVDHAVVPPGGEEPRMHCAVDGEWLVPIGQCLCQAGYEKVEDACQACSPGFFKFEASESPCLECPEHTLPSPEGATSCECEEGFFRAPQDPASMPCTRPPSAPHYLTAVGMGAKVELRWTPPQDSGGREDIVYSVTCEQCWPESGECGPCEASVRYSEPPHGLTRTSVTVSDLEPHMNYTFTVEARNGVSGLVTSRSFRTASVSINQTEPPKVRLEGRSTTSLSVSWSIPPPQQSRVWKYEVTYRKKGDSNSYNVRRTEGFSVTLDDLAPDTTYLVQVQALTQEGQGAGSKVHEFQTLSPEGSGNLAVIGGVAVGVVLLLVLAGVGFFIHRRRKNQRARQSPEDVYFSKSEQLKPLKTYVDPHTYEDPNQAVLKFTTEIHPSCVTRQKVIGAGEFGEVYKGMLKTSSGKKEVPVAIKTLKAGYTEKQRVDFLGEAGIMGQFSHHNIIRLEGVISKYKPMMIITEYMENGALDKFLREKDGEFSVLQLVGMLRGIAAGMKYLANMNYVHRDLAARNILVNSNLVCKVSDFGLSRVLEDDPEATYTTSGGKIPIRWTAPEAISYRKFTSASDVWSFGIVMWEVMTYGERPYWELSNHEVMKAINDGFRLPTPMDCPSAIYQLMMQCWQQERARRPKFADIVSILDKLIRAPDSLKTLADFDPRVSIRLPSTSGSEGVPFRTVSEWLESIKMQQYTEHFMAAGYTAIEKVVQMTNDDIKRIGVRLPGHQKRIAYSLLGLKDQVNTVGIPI

By GI50 is commonly meant the concentration at which growth is held to half of that of the control. Broadly, the IC50 is the point on the concentration scale where inhibition reaches its midpoint. Regarding `Nc1n[nH]c(N)c1/N=N/c1ccc(O)cc1`, the GI50 in assay [1] is 18.5 µM; in assay [2] it was 29.4 µM; in assay [3], 9.2 µM; in assay [4], 22.8 µM; in assay [5] it was 23.5 µM; in [6], 18 µM. It took 23.3 µM to inhibit growth in assay [7] by half (GI50). The Activity came out at 30% in [8]; 101% in assay [10]; 84% in [11]; 78% in assay [12]; 87% in assay [13]; 108% in assay [14]. Besides, the values for the Activity in [15], in assay [16] and in assay [17] were 50%, 51% and 55%, respectively. Further, the concentration for half-maximal inhibition (IC50) in assay [9] turned out to be 15 µM.
